Measurements published in article PMC6222847, “Application of HPCCC Combined with Polymeric Resins and HPLC for the Separation of Cyclic Lipopeptides Muscotoxins A–C and Their Antimicrobial Activity” (Molecules : A Journal of Synthetic Chemistry and Natural …, 2018).
In brackets after ≈: the same amount, converted by molar mass. *1 amine or outer side, *2 acyl side, *3 side chain or, on linkers, in order; H or OH if unused. Where a SMILES comes first, the peptide text is derived from it. [ ]: non-standard residue; d: D form. X1 = CCCCCC(O)CC(N[*:1])C(O)C(=O)[*:2]; d(aIle) = CC[C@H](C)[C@@H](N)C(=O)O; Dhb = C/C=C(\N)C(=O)O

How the values were obtained:
Test in all cases: microbe, parasite or virus in culture
Type in all cases: cell-based
Alternaria alternata = test system: Alternaria alternata
Procedure: (§1) Furthermore, compound 1 was evaluated for its antimicrobial activity against five bacterial isolates; S. aureus (CCM3824), B. subtilis (CCM1999), S. sanguinis (CCM4047), P. aeruginosa (CCM1959), E. coli (CCM2024), and eight fungal isolates; C. friedrichii (BCC020_2879), A. fumigatus (BCC020_2845), F. oxysporum (BCC020_2866), T. harzianum (BCC020_0606), B. sorokiniana (BCC020_1571), M. cucumerina (BCC020_2872), C. globosum (BCC020_2527), and A. alternata (BCC020_0609) using broth two-fold microdilution method following the standard protocol. Briefly, for broth microdilution method, the compounds were serially diluted at varying concentrations between 300 and 0.0732 µg/mL in Mueller Hinton broth (for bacteria) and Muller Hinton broth with 2% glucose (for fungi) in 96-well plates. Culture broth (0.1 mL) was added to each well containing the compound. Plates were incubated aerobically at 37 °C for 16 h (bacteria) and 30 °C for 48 h (for fungi). Negative controls were prepared separately with respective organisms in the same culture media with methanol (the dissolving solvent). Positive controls were also prepared separately with respective organisms. Erythromycin (32–0.0625 µg/mL) was used as positive control for S. aureus and S. sanguinis, gentamycin (32–0.0625 µg/mL) was used as positive control for Bacillus subtilis, E. coli, and P. aeruginosa, whereas fluconazole (32–0.0625 µg/mL) was used as positive control for all the fungal isolates. After incubation, the well with the least concentration of the compound showing any inhibition in the growth was taken as the MIC value for the respective organisms. MIC95 was determined as the concentration required to inhibit or kill 95% of bacterial isolates spectroscopically at 600 nm. Minimum fungicidal concentration (MFCs) were determined after 48 h incubation by removing 10 µL of the contents from wells showing no visible growth and spreading them on to Sabouraud dextrose agar plates. The plates were then incubated for 72 h and MFCs were determined as the concentrations which killed 95–100% of the inoculum. All the experiments were done in triplicate.

Trichoderma harzianum = test system: Trichoderma harzianum
Procedure: as §1

Aspergillus fumigatus = test system: Aspergillus fumigatus
Procedure: as §1

Chaetomium globosum = test system: Chaetomium globosum
Procedure: as §1

In the case of `C/C=C1\NC(=O)[C@H](CO)NC(=O)[C@@H]([C@@H](C)CC)NC(=O)[C@H](Cc2ccccc2)NC(=O)[C@@H]2CCCN2C(=O)CNC(=O)[C@@H](CCC(N)=O)NC(=O)C(O)C(CC(O)CCCCC)NC(=O)[C@@H]2CCCN2C(=O)[C@@H]([C@@H](C)CC)NC(=O)[C@H](CO)NC1=O` (some centres unmarked) [compound 2, muscotoxin A] (cyclo([Dhb]S[d(aIle)]P[X1][dQ]GPF[d(aIle)]S)), the MIC (Alternaria alternata; A. alternata BCC020_0609, Muller Hinton broth with 2% glucose, 300–0.0732 µg/mL (control 32–0.0625), 30 °C 48 h, triplicate, least concentration showing any inhibition) is reported as 0.58 mg/L (≈ 0.479 µM), the MFC (Alternaria alternata; A. alternata, 10 µL from wells without visible growth after 48 h spread on Sabouraud dextrose agar, 72 h, kills 95–100% of the inoculum) is reported as 75 mg/L (≈ 61.9 µM) and the MIC (Trichoderma harzianum; T. harzianum BCC020_0606, Muller Hinton broth with 2% glucose, 300–0.0732 µg/mL (control 32–0.0625), 30 °C 48 h, triplicate, least concentration showing any inhibition) is reported as 37.5 mg/L (≈ 31 µM). For the same compound, the MFC (Trichoderma harzianum; T. harzianum, 10 µL from wells without visible growth after 48 h spread on Sabouraud dextrose agar, 72 h, kills 95–100% of the inoculum) was 300 mg/L (≈ 248 µM), the MIC (Aspergillus fumigatus; A. fumigatus BCC020_2845, Muller Hinton broth with 2% glucose, 300–0.0732 µg/mL (control 32–0.0625), 30 °C 48 h, triplicate, least concentration showing any inhibition) was 2.34 mg/L (≈ 1.93 µM) and the MFC (Aspergillus fumigatus; A. fumigatus, 10 µL from wells without visible growth after 48 h spread on Sabouraud dextrose agar, 72 h, kills 95–100% of the inoculum) was 37.5 mg/L (≈ 31 µM). For the same compound, the MIC (Chaetomium globosum; C. globosum BCC020_2527, Muller Hinton broth with 2% glucose, 300–0.0732 µg/mL (control 32–0.0625), 30 °C 48 h, triplicate, least concentration showing any inhibition) was 18.75 mg/L (≈ 15.5 µM) and the MFC (Chaetomium globosum; C. globosum, 10 µL from wells without visible growth after 48 h spread on Sabouraud dextrose agar, 72 h, kills 95–100% of the inoculum) was less than 300 mg/L.
